Values after ≈ are worked out from the molar mass of the structure shown.
Columns and labels:
[1] = 1.0% DMSO, 24-hour incubation at ambient temperature, maximum theoretical 100 μM; for pH 2 solubility: 0.1N HCl, first value of the cell; for pH 7 solubility: 1×PBS buffer (pH 7.4), second value of the cell
[2] = Solubility in simulated intestinal fluids (FaSSIF/FeSSIF); settings: 25 °C, thermodynamic from solid
[3] = fasted state simulated intestinal fluid (FaSSIF), fassif
[4] = fed state simulated intestinal fluid (FeSSIF), fessif

Row | SMILES | pH 2 solubility [1] | pH 7 solubility [1] | solubility [2, 3] | solubility [2, 4]
1 | CC(C)(C#Cc1ccc(-c2ccc(Cl)c3c(N(C(=O)N(CCCC(=O)O)CCNC(=O)OCOP(=O)(O)O)S(C)(=O)=O)nn(CC(F)(F)F)c23)c([C@H](Cc2cc(F)cc(F)c2)NC(=O)Cn2nc(C(F)(F)F)c3c2C(F)(F)[C@@H]2C[C@H]32)n1)S(C)(=O)=O [Compound 82] | 2 μM | 100 μM | 2680 µg/mL (≈ 2070 µM) | 1800 µg/mL (≈ 1390 µM)
2 | CC(C)(C#Cc1ccc(-c2ccc(Cl)c3c(N(C(=O)NC(C(=O)O)C(=O)O)S(C)(=O)=O)nn(CC(F)(F)F)c23)c([C@H](Cc2cc(F)cc(F)c2)NC(=O)Cn2nc(C(F)(F)F)c3c2C(F)(F)[C@@H]2C[C@H]32)n1)S(C)(=O)=O [Compound 53, 2-(3-(4-chloro-7-(2-((S)-1-(2-((3bS,4aR)-5,5-difluoro-3-(trifluoromethyl)-3b,4,4a,5-tetrahydro-1H-cyclopropa[3,4]cyclopenta[1,2-c]pyrazol-1-yl)acetamido)-2-(3,5-difluorophenyl)ethyl)-6-(3-methyl-3-(methylsulfonyl)but-1-yn-1-yl)pyridin-3-yl)-1-(2,2,2-trifluoroethyl)-1H-indazol-3-yl)-3-(methylsulfonyl)ureido)malonic acid] | 1 μM | 62 μM | 758 µg/mL (≈ 681 µM) | 370 µg/mL (≈ 332 µM)
3 | CC(C)(C#Cc1ccc(-c2ccc(Cl)c3c(N(C(=O)C(=O)O)S(C)(=O)=O)nn(CC(F)(F)F)c23)c([C@H](Cc2cc(F)cc(F)c2)NC(=O)Cn2nc(C(F)(F)F)c3c2C(F)(F)[C@@H]2C[C@H]32)n1)S(C)(=O)=O [Compound 16] | 1 μM | 92 μM | 710 µg/mL (≈ 682 µM) | 497 µg/mL (≈ 478 µM)
4 | CC(C)(C#Cc1ccc(-c2ccc(Cl)c3c(N(C(=O)N[C@@H](COC(=O)C(=O)O)C(=O)O)S(C)(=O)=O)nn(CC(F)(F)F)c23)c([C@H](Cc2cc(F)cc(F)c2)NC(=O)Cn2nc(C(F)(F)F)c3c2C(F)(F)[C@@H]2C[C@H]32)n1)S(C)(=O)=O [Compound 60, O-(carboxycarbonyl)-N-((4-chloro-7-(2-((S)-1-(2-((3bS,4aR)-5,5-difluoro-3-(trifluoromethyl)-3b,4,4a,5-tetrahydro-1H-cyclopropa[3,4]cyclopenta[1,2-c]pyrazol-1-yl)acetamido)-2-(3,5-difluorophenyl)ethyl)-6-(3-methyl-3-(methylsulfonyl)but-1-yn-1-yl)pyridin-3-yl)-1-(2,2,2-trifluoroethyl)-1H-indazol-3-yl)(methylsulfonyl)carbamoyl)-L-serine] | 1 μM | 14 μM | 364 µg/mL (≈ 311 µM) | 756 µg/mL (≈ 645 µM)
5 | CC(C)(C#Cc1ccc(-c2ccc(Cl)c3c(N(COC(=O)C(=O)O)S(C)(=O)=O)nn(CC(F)(F)F)c23)c([C@H](Cc2cc(F)cc(F)c2)NC(=O)Cn2nc(C(F)(F)F)c3c2C(F)(F)[C@@H]2C[C@H]32)n1)S(C)(=O)=O [Compound 20, 2-((N-(4-chloro-7-(2-((S)-1-(2-((3bS,4aR)-5,5-difluoro-3-(trifluoromethyl)-3b,4,4a,5-tetrahydro-1H-cyclopropa[3,4]cyclopenta[1,2-c]pyrazol-1-yl)acetamido)-2-(3,5-difluorophenyl)ethyl)-6-(3-methyl-3-(methylsulfonyl)but-1-yn-1-yl)pyridin-3-yl)-1-(2,2,2-trifluoroethyl)-1H-indazol-3-yl)methylsulfonamido)methoxy)-2-oxoacetic acid] | 13 μM | 100 μM | 448 µg/mL (≈ 419 µM) | 454 µg/mL (≈ 424 µM)
6 | C[C@@H](N)C(=O)OCN(c1nn(CC(F)(F)F)c2c(-c3ccc(C#CC(C)(C)S(C)(=O)=O)nc3[C@H](Cc3cc(F)cc(F)c3)NC(=O)Cn3nc(C(F)(F)F)c4c3C(F)(F)[C@@H]3C[C@H]43)ccc(Cl)c12)S(C)(=O)=O [Compound 26, (N-(4-chloro-7-(2-((S)-1-(2-((3bS,4aR)-5,5-difluoro-3-(trifluoromethyl)-3b,4,4a,5-tetrahydro-1H-cyclopropa[3,4]cyclopenta[1,2-c]pyrazol-1-yl)acetamido)-2-(3,5-difluorophenyl)ethyl)-6-(3-methyl-3-(methylsulfonyl)but-1-yn-1-yl)pyridin-3-yl)-1-(2,2,2-trifluoroethyl)-1H-indazol-3-yl)methylsulfonamido)methyl D-alaninate] | 23 μM | 2 μM | 13 µg/mL (≈ 12.2 µM) | 89 µg/mL (≈ 83.2 µM)

Second part, the molecule after the results:

Row | pH 2 solubility [1] | pH 7 solubility [1] | solubility [2, 3] | solubility [2, 4] | SMILES
7 | 1 μM | 20 μM | 14 µg/mL (≈ 12.8 µM) | 1 µg/mL (≈ 0.911 µM) | CN(CCC(=O)O)C(=O)N(c1nn(CC(F)(F)F)c2c(-c3ccc(C#CC(C)(C)S(C)(=O)=O)nc3[C@H](Cc3cc(F)cc(F)c3)NC(=O)Cn3nc(C(F)(F)F)c4c3C(F)(F)[C@@H]3C[C@H]43)ccc(Cl)c12)S(C)(=O)=O [Compound 45, 3-(3-(4-chloro-7-(2-((S)-1-(2-((3bS,4aR)-5,5-difluoro-3-(trifluoromethyl)-3b,4,4a,5-tetrahydro-1H-cyclopropa[3,4]cyclopenta[1,2-c]pyrazol-1-yl)acetamido)-2-(3,5-difluorophenyl)ethyl)-6-(3-methyl-3-(methylsulfonyl)but-1-yn-1-yl)pyridin-3-yl)-1-(2,2,2-trifluoroethyl)-1H-indazol-3-yl)-1-methyl-3-(methylsulfonyl)ureido)propanoic acid]
8 | 1 μM | 100 μM | 2020 µg/mL (≈ 1560 µM) | 1470 µg/mL (≈ 1130 µM) | CN(CCN(CCC(=O)O)C(=O)OCOP(=O)(O)O)C(=O)N(c1nn(CC(F)(F)F)c2c(-c3ccc(C#CC(C)(C)S(C)(=O)=O)nc3[C@H](Cc3cc(F)cc(F)c3)NC(=O)Cn3nc(C(F)(F)F)c4c3C(F)(F)[C@@H]3C[C@H]43)ccc(Cl)c12)S(C)(=O)=O [Compound 86, 3-((2-(3-(4-chloro-7-(2-((S)-1-(2-((3bS,4aR)-5,5-difluoro-3-(trifluoromethyl)-3b,4,4a,5-tetrahydro-1H-cyclopropa[3,4]cyclopenta[1,2-c]pyrazol-1-yl)acetamido)-2-(3,5-difluorophenyl)ethyl)-6-(3-methyl-3-(methylsulfonyl)but-1-yn-1-yl)pyridin-3-yl)-1-(2,2,2-trifluoroethyl)-1H-indazol-3-yl)-1-methyl-3-(methylsulfonyl)ureido)ethyl)(((phosphonooxy)methoxy)carbonyl)amino)propanoic acid]
9 | 2 μM | 21 μM | 798 µg/mL (≈ 677 µM) | 819 µg/mL (≈ 694 µM) | CC(C)(C#Cc1ccc(-c2ccc(Cl)c3c(N(C(=O)N[C@@H](COP(=O)(O)O)C(=O)O)S(C)(=O)=O)nn(CC(F)(F)F)c23)c([C@H](Cc2cc(F)cc(F)c2)NC(=O)Cn2nc(C(F)(F)F)c3c2C(F)(F)[C@@H]2C[C@H]32)n1)S(C)(=O)=O [Compound 59, N-((4-chloro-7-(2-((S)-1-(2-((3bS,4aR)-5,5-difluoro-3-(trifluoromethyl)-3b,4,4a,5-tetrahydro-1H-cyclopropa[3,4]cyclopenta[1,2-c]pyrazol-1-yl)acetamido)-2-(3,5-difluorophenyl)ethyl)-6-(3-methyl-3-(methylsulfonyl)but-1-yn-1-yl)pyridin-3-yl)-1-(2,2,2-trifluoroethyl)-1H-indazol-3-yl)(methylsulfonyl)carbamoyl)-O-phosphono-L-serine]
10 | 6 μM | 100 μM | 7550 µg/mL (≈ 5900 µM) | 1720 µg/mL (≈ 1350 µM) | CC(C)(C#Cc1ccc(-c2ccc(Cl)c3c(N(C(=O)N(CCNC(=O)OCOP(=O)(O)O)CCC(=O)O)S(C)(=O)=O)nn(CC(F)(F)F)c23)c([C@H](Cc2cc(F)cc(F)c2)NC(=O)Cn2nc(C(F)(F)F)c3c2C(F)(F)[C@@H]2C[C@H]32)n1)S(C)(=O)=O [Compound 80, 3-(3-(4-chloro-7-(2-((S)-1-(2-((3bS,4aR)-5,5-difluoro-3-(trifluoromethyl)-3b,4,4a,5-tetrahydro-1H-cyclopropa[3,4]cyclopenta[1,2-c]pyrazol-1-yl)acetamido)-2-(3,5-difluorophenyl)ethyl)-6-(3-methyl-3-(methylsulfonyl)but-1-yn-1-yl)pyridin-3-yl)-1-(2,2,2-trifluoroethyl)-1H-indazol-3-yl)-3-(methylsulfonyl)-1-(2-((((phosphonooxy)methoxy)carbonyl)amino)ethyl)ureido)propanoic acid]
11 | 1 μM | 5 μM | 5 µg/mL (≈ 4.55 µM) | 8 µg/mL (≈ 7.28 µM) | CC(C)(C#Cc1ccc(-c2ccc(Cl)c3c(N(C(=O)OCCCC(=O)O)S(C)(=O)=O)nn(CC(F)(F)F)c23)c([C@H](Cc2cc(F)cc(F)c2)NC(=O)Cn2nc(C(F)(F)F)c3c2C(F)(F)[C@@H]2C[C@H]32)n1)S(C)(=O)=O [Compound 113]
12 | 14 μM | 68 μM | 617 µg/mL (≈ 540 µM) | 42 µg/mL (≈ 36.8 µM) | CC(C)(C#Cc1ccc(-c2ccc(Cl)c3c(N(C(=O)OC(CC(=O)O)CC(=O)O)S(C)(=O)=O)nn(CC(F)(F)F)c23)c([C@H](Cc2cc(F)cc(F)c2)NC(=O)Cn2nc(C(F)(F)F)c3c2C(F)(F)[C@@H]2C[C@H]32)n1)S(C)(=O)=O [Compound 125, 3-(((4-chloro-7-(2-((S)-1-(2-((3bS,4aR)-5,5-difluoro-3-(trifluoromethyl)-3b,4,4a,5-tetrahydro-1H-cyclopropa[3,4]cyclopenta[1,2-c]pyrazol-1-yl)acetamido)-2-(3,5-difluorophenyl)ethyl)-6-(3-methyl-3-(methylsulfonyl)but-1-yn-1-yl)pyridin-3-yl)-1-(2,2,2-trifluoroethyl)-1H-indazol-3-yl)(methylsulfonyl)carbamoyl)oxy)pentanedioic acid]

From US12404262B2 (priority 2021, dated 2025)
